The values below come from patent US10654808B2, “Tyrosine kinase inhibitor and pharmaceutical composition comprising same” (GUANGDONG RAYNOVENT BIOTECH CO., LTD., priority 2015, dated 2020).

Common to all, as to assay type: biochemical
One assay deals with T1, PDGFRB (Homo sapiens, UniProt P09619).
T1 construct: purchased Millipore
Kind of assay: Z'-LYTE in vitro enzyme activity assay, PDGFRB. To be noted: 100 μM ATP, 60 minutes, room temperature; read-out: IC50 detected by Z'-LYTE, PDGFRB. In a few lines:
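Z′-LYTE FRET kinase assay using 40 nM PDGFRB, 2 μM Tyr4 peptide and 100 μM ATP in HEPES pH 7.5 with Mg2+/Mn2+ and 1% DMSO. The reaction ran 60 min at room temperature, followed by development for 60 min at 23 °C. IC50 values came from 4-parameter fits over 11 concentrations (10 μM–0.17 nM).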

Another assay deals with T2, FGFR1 (Homo sapiens, UniProt P11362).
T2 construct: purchased Life technology
Kind of assay: Z'-LYTE in vitro enzyme activity assay, FGFR1. To be noted: 25 μM ATP, 60 minutes, room temperature; read-out: IC50 detected by Z'-LYTE, FGFR1. The method, boiled down: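 Z′-LYTE FRET assay with 1 nM FGFR1, 2 μM Tyr4 peptide and 25 μM ATP in HEPES pH 7.5 with Mg/Mn, 60 min at room temperature, then development 60 min at 23 °C. Compounds tested at 11 concentrations from 10 μM to 0.17 nM in 1% DMSO. IC50 from 4-parameter fit of inhibition.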

Another assay addresses T3, VEGFR2 (Homo sapiens, UniProt P35968).
T3 construct: purchased Life technology
Kind of assay: Z'-LYTE in vitro enzyme activity assay, VEGFR2. Particulars: 100 μM ATP, 60 minutes, room temperature; read-out: IC50 detected by Z'-LYTE, VEGFR2. In a few lines: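 Reaction with 3 nM VEGFR2, 2 μM Tyr1 peptide and 100 μM ATP in HEPES pH 7.5/MgCl2/EGTA/BRIJ-35, 1% DMSO, 60 min at room temperature; development reagent then 60 min at 23° C. Compounds tested at 11 threefold dilutions, 10 μM–0.17 nM final, in duplicate; IC50 from 4-parameter fit of inhibition.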

T1 sequence (P09619 33-1106): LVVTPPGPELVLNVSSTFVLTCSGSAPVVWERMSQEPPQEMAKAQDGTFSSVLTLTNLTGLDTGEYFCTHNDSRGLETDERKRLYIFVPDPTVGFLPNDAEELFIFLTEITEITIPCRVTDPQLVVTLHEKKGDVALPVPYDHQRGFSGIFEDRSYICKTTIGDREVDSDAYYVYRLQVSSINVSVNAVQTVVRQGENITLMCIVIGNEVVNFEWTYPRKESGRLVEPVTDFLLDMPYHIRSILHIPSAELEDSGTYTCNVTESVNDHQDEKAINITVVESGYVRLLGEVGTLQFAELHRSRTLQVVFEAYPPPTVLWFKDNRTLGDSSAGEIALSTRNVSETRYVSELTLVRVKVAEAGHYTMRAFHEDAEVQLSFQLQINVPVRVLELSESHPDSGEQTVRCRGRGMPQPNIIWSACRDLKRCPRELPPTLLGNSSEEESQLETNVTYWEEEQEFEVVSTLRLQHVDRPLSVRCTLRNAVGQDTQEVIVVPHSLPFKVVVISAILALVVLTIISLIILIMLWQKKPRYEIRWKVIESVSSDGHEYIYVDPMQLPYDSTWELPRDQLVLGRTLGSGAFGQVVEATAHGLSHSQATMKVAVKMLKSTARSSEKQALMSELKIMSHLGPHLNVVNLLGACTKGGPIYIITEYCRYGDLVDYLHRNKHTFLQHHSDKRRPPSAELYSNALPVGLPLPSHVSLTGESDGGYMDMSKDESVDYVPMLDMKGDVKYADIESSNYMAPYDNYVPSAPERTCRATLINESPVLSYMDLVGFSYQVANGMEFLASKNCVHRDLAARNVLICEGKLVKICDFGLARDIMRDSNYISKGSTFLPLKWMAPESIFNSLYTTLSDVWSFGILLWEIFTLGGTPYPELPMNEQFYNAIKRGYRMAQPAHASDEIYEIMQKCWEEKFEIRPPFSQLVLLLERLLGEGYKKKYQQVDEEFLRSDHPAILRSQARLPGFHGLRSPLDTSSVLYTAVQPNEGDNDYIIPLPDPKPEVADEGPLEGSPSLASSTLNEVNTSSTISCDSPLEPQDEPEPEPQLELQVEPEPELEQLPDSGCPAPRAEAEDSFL
T2 sequence (P11362 22-822): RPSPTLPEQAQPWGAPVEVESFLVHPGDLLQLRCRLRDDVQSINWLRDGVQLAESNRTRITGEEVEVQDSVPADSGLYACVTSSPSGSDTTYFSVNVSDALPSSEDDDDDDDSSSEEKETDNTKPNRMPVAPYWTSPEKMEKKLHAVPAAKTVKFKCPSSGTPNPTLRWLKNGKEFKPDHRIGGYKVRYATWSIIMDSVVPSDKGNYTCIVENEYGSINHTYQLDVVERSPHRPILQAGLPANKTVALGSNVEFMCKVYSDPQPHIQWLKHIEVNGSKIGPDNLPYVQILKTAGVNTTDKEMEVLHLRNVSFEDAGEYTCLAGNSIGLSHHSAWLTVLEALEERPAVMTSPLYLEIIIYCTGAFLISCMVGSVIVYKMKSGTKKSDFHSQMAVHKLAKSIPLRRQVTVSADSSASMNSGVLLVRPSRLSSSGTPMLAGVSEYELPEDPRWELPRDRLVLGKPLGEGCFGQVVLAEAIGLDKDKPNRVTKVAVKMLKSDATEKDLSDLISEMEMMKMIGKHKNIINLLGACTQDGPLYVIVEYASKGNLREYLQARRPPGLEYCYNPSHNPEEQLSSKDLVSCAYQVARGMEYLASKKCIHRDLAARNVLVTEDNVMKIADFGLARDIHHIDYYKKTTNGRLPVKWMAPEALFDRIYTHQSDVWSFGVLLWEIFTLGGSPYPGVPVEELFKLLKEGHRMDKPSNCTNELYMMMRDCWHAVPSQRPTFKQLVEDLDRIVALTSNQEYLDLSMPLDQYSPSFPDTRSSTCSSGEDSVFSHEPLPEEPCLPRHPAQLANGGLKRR
T3 sequence (P35968 20-1356): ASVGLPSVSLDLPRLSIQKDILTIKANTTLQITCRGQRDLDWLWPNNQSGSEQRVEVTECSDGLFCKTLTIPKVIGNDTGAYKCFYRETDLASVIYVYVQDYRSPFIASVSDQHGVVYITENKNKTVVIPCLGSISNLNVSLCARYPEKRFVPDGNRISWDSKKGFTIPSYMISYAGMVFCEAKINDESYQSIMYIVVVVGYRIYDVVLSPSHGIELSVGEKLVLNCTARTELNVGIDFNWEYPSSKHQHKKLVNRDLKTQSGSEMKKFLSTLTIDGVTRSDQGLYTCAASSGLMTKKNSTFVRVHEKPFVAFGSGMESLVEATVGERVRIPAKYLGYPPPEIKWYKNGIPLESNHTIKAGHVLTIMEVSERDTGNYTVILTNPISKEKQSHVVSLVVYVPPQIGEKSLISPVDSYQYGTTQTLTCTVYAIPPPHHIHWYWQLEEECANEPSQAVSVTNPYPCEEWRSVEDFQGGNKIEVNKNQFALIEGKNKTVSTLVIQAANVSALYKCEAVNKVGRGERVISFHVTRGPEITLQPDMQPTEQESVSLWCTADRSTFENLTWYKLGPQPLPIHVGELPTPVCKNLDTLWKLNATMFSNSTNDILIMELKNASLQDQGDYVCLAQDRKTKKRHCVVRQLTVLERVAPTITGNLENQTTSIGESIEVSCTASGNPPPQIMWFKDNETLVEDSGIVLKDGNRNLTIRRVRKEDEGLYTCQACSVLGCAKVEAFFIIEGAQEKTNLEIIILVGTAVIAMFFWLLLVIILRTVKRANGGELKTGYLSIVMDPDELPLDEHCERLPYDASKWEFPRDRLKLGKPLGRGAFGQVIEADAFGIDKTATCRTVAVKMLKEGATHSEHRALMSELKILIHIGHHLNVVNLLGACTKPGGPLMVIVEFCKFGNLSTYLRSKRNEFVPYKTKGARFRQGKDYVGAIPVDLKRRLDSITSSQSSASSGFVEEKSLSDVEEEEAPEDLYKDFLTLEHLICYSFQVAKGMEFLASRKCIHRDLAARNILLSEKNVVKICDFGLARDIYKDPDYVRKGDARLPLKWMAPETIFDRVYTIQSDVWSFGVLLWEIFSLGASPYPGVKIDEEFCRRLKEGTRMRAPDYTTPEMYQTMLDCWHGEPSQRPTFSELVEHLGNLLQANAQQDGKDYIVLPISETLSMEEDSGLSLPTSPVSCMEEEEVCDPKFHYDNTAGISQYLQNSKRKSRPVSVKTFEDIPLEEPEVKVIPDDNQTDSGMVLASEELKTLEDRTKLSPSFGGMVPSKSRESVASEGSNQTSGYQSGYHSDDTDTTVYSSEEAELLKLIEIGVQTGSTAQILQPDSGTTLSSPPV

Broadly, the IC50 is the concentration that gives 50% inhibition. Turning to `CC1(C)NC(=O)c2cc3c(Oc4ccc(NC(=S)NC5CC5)c(Cl)c4)ccnc3cc2O1` [Example 172], the IC50 on PDGFRB, at FGFR1 and at VEGFR2 was 200 to 1000 nM each time.

For `COc1cc2nccc(Oc3ccc(NC(=S)N4CCC(F)(F)C4)c(Cl)c3)c2cc1C(N)=O` [Example 66], the IC50 fell in the range of 200 to 1000 nM at PDGFRB, 200 to 1000 nM at FGFR1 and 50 to 200 nM at VEGFR2.

In the case of `COc1cc2nccc(Oc3ccc4nc(NC5CCC5)sc4c3)c2cc1C(N)=O` [Example 158], the IC50 at PDGFRB, at FGFR1 and on VEGFR2 was 200 to 1000 nM in each case.

`CCCNc1c(Nc2ccc(Oc3ccnc4cc(OC)c(C(N)=O)cc34)cc2Cl)c(=O)c1=O` [Example 140]: the IC50 on PDGFRB, on FGFR1 and at VEGFR2 was 200 to 1000 nM each time.

Turning to `COc1cc2nccc(Oc3cc4occ(C(=O)NC5CC5)c4cc3Cl)c2cc1C(N)=O` [Example 199], the results for the IC50 on PDGFRB, at FGFR1 and at VEGFR2 were under 50 nM, 200 to 1000 nM and 50 to 200 nM, respectively.

Consider `COc1cc2nccc(Oc3ccc(Nc4c(NCCc5ccccc5)c(=O)c4=O)c(Cl)c3)c2cc1C(N)=O` [Example 154], for which the IC50 at PDGFRB, at FGFR1 and at VEGFR2 was 200 to 1000 nM each time.

For the molecule `COc1cc2nccc(Oc3ccc4c(C(=O)N5CCCC5)coc4c3)c2cc1C(N)=O` [Example 206], the IC50 at PDGFRB, at FGFR1 and at VEGFR2 was 200 to 1000 nM throughout.

As to `COc1cc2nccc(Oc3ccc4nc(NCc5cccc(C(F)(F)F)c5)sc4c3)c2cc1C(N)=O` [Example 161], the IC50 at PDGFRB, at FGFR1 and on VEGFR2 was 200 to 1000 nM throughout.

Regarding `COc1cc2nccc(Oc3ccc(NC(=S)N4CC[C@@H](O)C4)c(Cl)c3)c2cc1C(N)=O` [Example 73], the IC50 on PDGFRB lay within 200 to 1000 nM; on FGFR1 it was 200 to 1000 nM; at VEGFR2 it was 50 to 200 nM.

Turning to `COc1cc2ncc(Cl)c(Oc3ccc(NC(=S)N4CCCC4)c(Cl)c3)c2cc1C(N)=O` [Example 88], the IC50 at PDGFRB, on FGFR1 and at VEGFR2 was 200 to 1000 nM throughout.

In the case of `COc1cc2nccc(Oc3ccc(NC(=S)NC4CCOCC4)c(Cl)c3)c2cc1C(N)=O` [Example 15], the IC50 lay within 50 to 200 nM on PDGFRB, 200 to 1000 nM on FGFR1 and 200 to 1000 nM on VEGFR2.

`COc1cc2nccc(Oc3ccc(Nc4c(Nc5cccc(C(F)(F)F)c5)c(=O)c4=O)c(Cl)c3)c2cc1C(N)=O` [Example 155]: the figures for the IC50 at PDGFRB, on FGFR1 and on VEGFR2 were under 50 nM, 200 to 1000 nM and 200 to 1000 nM, respectively.

Turning to `COc1cc2nccc(Oc3ccc(NC(=S)N4CC(F)(F)C4)c(Cl)c3)c2cc1C(F)(F)F` [Example 184], the IC50 at PDGFRB, at FGFR1 and on VEGFR2 was 200 to 1000 nM throughout.

`COc1cc2nccc(Oc3ccc(Nc4c(Nc5cccnc5)c(=O)c4=O)c(Cl)c3)c2cc1C(N)=O` [Example 147]: the concentration for half-maximal inhibition (IC50) on PDGFRB, on FGFR1 and at VEGFR2 was 200 to 1000 nM in each case.

With `COc1cc2nccc(Oc3ccc(NC(=S)N4CCC(F)(F)CC4)c(Cl)c3)c2cc1C(N)=O` [Example 67], the IC50 at PDGFRB was 200 to 1000 nM; at FGFR1 it was 200 to 1000 nM; at VEGFR2 it was 50 to 200 nM.

On to `COc1cc2nccc(Oc3ccc(NC(=S)N4CC(F)(F)C4)c(Cl)c3)c2cc1NC(C)=O` [Example 180], for which the IC50 on PDGFRB, on FGFR1 and at VEGFR2 was 200 to 1000 nM each time.

On to `COc1cc2nccc(Oc3ccc(NC(=S)NC(C)C)c(Cl)c3)c2cc1C(N)=O` [Example 52], for which the IC50 at PDGFRB was 50 to 200 nM; on FGFR1, 200 to 1000 nM; at VEGFR2, under 50 nM.

As for `COc1cc2nccc(Oc3ccc4c(c3)CCCN4C(=S)NCC(F)F)c2cc1C(N)=O` [Example 34], the values for the IC50 at PDGFRB, at FGFR1 and on VEGFR2 were 50 to 200 nM, 200 to 1000 nM and 200 to 1000 nM, respectively.

Take `COc1cc2nccc(Oc3ccc(NC(=O)N4CC[C@@H](F)C4)c(Cl)c3F)c2cc1C(N)=O` [Example 113]: the IC50 at PDGFRB, on FGFR1 and on VEGFR2 was 200 to 1000 nM throughout.

`COc1cc2nccc(Oc3ccc(N4CC(=O)NC4=S)c(Cl)c3)c2cc1C(N)=O` [Example 167]: the IC50 at PDGFRB is under 50 nM; at FGFR1 it was 200 to 1000 nM; at VEGFR2, under 50 nM.

Regarding `COc1cc2nccc(Oc3ccc(NC(=S)NCCN4CCOCC4)c(Cl)c3)c2cc1C(N)=O` [Example 19], the IC50 is under 50 nM on PDGFRB, 200 to 1000 nM on FGFR1 and 200 to 1000 nM on VEGFR2.

Regarding `COc1cc2nccc(Oc3ccc(NC(=S)N4CC(O)C4)c(Cl)c3)c2cc1C(N)=O` [Example 69], the half-maximal inhibitory concentration (IC50) is 50 to 200 nM on PDGFRB, 200 to 1000 nM on FGFR1 and 50 to 200 nM at VEGFR2.

Take `COc1cc2nccc(Oc3ccc(NC(=S)Nc4cccnc4)c(Cl)c3)c2cc1C(N)=O` [Example 10]: the IC50 lay in the range of 50 to 200 nM on PDGFRB, 200 to 1000 nM at FGFR1 and 50 to 200 nM at VEGFR2.

For `COc1cc2nccc(Oc3ccc(NC(=S)N4CCN(C)CC4)c(Cl)c3)c2cc1C(N)=O` [Example 51], the figures for the IC50 at PDGFRB, on FGFR1 and on VEGFR2 were 50 to 200 nM, 200 to 1000 nM and 200 to 1000 nM, respectively.

As for `CCC1NC(=O)c2cc3c(Oc4ccc(NC(=S)NC5CC5)c(Cl)c4)ccnc3cc2O1` (stereo not drawn) [Example 173], the IC50 on PDGFRB, at FGFR1 and on VEGFR2 was 200 to 1000 nM in each case.

`COc1cc2nccc(Oc3cc(F)c(NC(=S)N4CCCC4)c(F)c3)c2cc1C(N)=O` [Example 91]: the 50% inhibitory concentration (IC50) was in the range of 200 to 1000 nM on PDGFRB, 200 to 1000 nM on FGFR1 and 50 to 200 nM on VEGFR2.

On to `COc1cc2nccc(Oc3ccc(Nc4c(NCC(F)(F)F)c(=O)c4=O)c(Cl)c3)c2cc1C(N)=O` [Example 138], for which the IC50 on PDGFRB, on FGFR1 and on VEGFR2 was 200 to 1000 nM throughout.

As for `COc1cc2nccc(Oc3ccc(NC(=S)NCCCO)c(Cl)c3)c2cc1C(N)=O` [Example 29], the IC50 on PDGFRB lay within 50 to 200 nM; at FGFR1, 200 to 1000 nM; on VEGFR2 it was 50 to 200 nM.

Regarding `COc1cc2nccc(Oc3ccc(NC(=S)N4CCC4)c(Cl)c3)c2cc1C(N)=O` [Example 68], the IC50 at PDGFRB, on FGFR1 and on VEGFR2 was 50 to 200 nM each time.

In the case of `COc1cc2nccc(Oc3ccc(NC(=O)N4CC[C@H](O)C4)c(Cl)c3F)c2cc1C(N)=O` [Example 118], the IC50 on PDGFRB was in the range of 50 to 200 nM; at FGFR1, 200 to 1000 nM; at VEGFR2, 50 to 200 nM.

Turning to `COc1cc2nccc(Oc3ccc(NC(=S)NCC(C)(C)O)c(Cl)c3)c2cc1C(N)=O` [Example 30], the IC50 on PDGFRB, at FGFR1 and on VEGFR2 was 200 to 1000 nM throughout.

For the molecule `COc1cc2nccc(Oc3ccc(NC(=S)NCCCSC)c(Cl)c3)c2cc1C(N)=O` [Example 63], the values for the IC50 at PDGFRB, at FGFR1 and on VEGFR2 were under 50 nM, 200 to 1000 nM and 50 to 200 nM, respectively.

For `COc1cc2nccc(Oc3ccc(NC(=S)N4CC[C@@H](F)C4)c(Cl)c3F)c2cc1C(N)=O` [Example 108], the values for the IC50 at PDGFRB, at FGFR1 and at VEGFR2 were 200 to 1000 nM, 50 to 200 nM and 50 to 200 nM, respectively.

Take `CCN(CC)CCOc1cc2nccc(Oc3ccc(NC(=S)NC4CC4)c(Cl)c3)c2cc1C(N)=O` [Example 31]: the IC50 on PDGFRB, on FGFR1 and at VEGFR2 was 200 to 1000 nM each time.

As to `COc1ccc2c(Oc3ccc(NC(=S)NC4CC4)c(Cl)c3)ccnc2c1` [Example 170], the IC50 was 200 to 1000 nM at PDGFRB, 200 to 1000 nM on FGFR1 and under 50 nM on VEGFR2.

For the molecule `COc1cc2nccc(Oc3ccc(NC(=S)NC4CC(O)C4)c(Cl)c3)c2cc1C(N)=O` (stereo not drawn) [Example 27], the IC50 on PDGFRB was 50 to 200 nM; at FGFR1, 200 to 1000 nM; at VEGFR2, 50 to 200 nM.

As for `O=C(Nc1ccc(Oc2ccnc3cc(-c4cn(-c5ccccc5)cn4)ccc23)c(F)c1Cl)NC1CC1` [Example 228], the 50% inhibitory concentration (IC50) on PDGFRB, on FGFR1 and on VEGFR2 was 200 to 1000 nM each time.

On to `COc1cc2nccc(Oc3ccc4c(NC(=S)NC5CC5)nn(C)c4c3)c2cc1C(N)=O` [Example 193], for which the IC50 on PDGFRB is 50 to 200 nM; at FGFR1, 200 to 1000 nM; at VEGFR2, 200 to 1000 nM.

As for `COc1cc2nccc(Oc3ccc(NC(N)=S)c(Cl)c3)c2cc1C(N)=O` [Example 57], the IC50 at PDGFRB is 50 to 200 nM; on FGFR1, 200 to 1000 nM; at VEGFR2 it was under 50 nM.

For `COc1cc2nccc(Oc3ccc(NC(=O)NC(C)(C)C(F)(F)F)c(Cl)c3)c2cc1C(N)=O` [Example 33], the IC50 is 50 to 200 nM on PDGFRB, 200 to 1000 nM at FGFR1 and 200 to 1000 nM at VEGFR2.

Consider `COc1cc2nccc(Oc3ccc(NC(=S)NCc4ccncc4)c(Cl)c3)c2cc1C(N)=O` [Example 5], for which the figures for the IC50 at PDGFRB, on FGFR1 and at VEGFR2 were 50 to 200 nM, 200 to 1000 nM and 50 to 200 nM, respectively.
